Source: US8618054B2, “Interleukin-1 receptor antagonists, compositions, and methods of treatment” (Valorisation-Rechereche Société en Commandite, priority 2004, dated 2013)
Marks after values point to notes of the source that are not given here. Where a SMILES comes first, the peptide text is derived from it.

What was measured:
[1] = target: T1, IL-1R/IL-1RacP receptor (Sus scrofa, UniProt A0A5G2QSI4); experiment: IL-1-induced PGE2 synthesis in piglet brain microvascular endothelial cells; format: cell-based, porcine; settings: endothelial cells; for inhibition of IL-1-induced PGE2 synthesis, compared with parent API-101: alanine scan peptides 10^−6M
T1 construct: endogenous in cells; host or cells: piglet brain microvascular endothelial cells
T1 sequence (A0A5G2QSI4 21-572): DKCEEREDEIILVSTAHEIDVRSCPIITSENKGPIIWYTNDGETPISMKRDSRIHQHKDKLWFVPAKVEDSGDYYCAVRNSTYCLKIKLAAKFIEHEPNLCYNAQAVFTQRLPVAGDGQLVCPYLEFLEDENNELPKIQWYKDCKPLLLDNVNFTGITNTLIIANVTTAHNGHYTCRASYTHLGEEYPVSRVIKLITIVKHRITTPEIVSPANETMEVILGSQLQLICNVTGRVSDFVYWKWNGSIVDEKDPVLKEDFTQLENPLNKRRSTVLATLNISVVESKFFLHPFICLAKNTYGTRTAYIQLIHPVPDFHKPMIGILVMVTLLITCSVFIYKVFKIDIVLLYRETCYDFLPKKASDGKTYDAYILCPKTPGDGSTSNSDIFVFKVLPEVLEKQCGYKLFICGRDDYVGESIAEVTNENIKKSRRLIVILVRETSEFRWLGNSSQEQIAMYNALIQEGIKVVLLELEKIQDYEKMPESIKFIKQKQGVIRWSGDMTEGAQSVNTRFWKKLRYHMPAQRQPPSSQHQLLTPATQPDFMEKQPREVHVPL
Protocol: (§1) It is well known in the art that IL-1 induces the synthesis of prostaglandin E2 (PGE2) in endothelial cells and/or chondrocytes in vitro. Therefore, human chondrocytes and piglet brain microvascular endothelial cells were pre-incubated 45-60 minutes at 37° C. with peptide API-101 (^10−6M) and human IL-1 (10 ng/ml) was added in the growing medium. After 24 hours of incubation, growth medium was collected and evaporated. PGE2 measurement was determined by RIA assay with a commercial kit (Cederlane).

[2] = system: IL-1R/IL-1RacP receptor; experiment: Ex vivo vasomotricity: reversal of IL-1β-induced vasodilation of piglet pial vessels; settings: IL-1β 75 ng/ml
Protocol: Ex vivo vasomotor response on brain vessels was performed as described (Li et al., 1996; Hou et al., 2000; Hou et al., 2001; Hou et al., 2003). Brains were removed from Yorkshire piglets. Slices of cortex exposing the pial vessels were pinned to a wax base of a 20 ml bath containing Krebs buffer (pH 7.4) equilibrated with 95% O2, 5% CO2 and maintained at 37° C. Microvessels were visualized and recorded using a video camera mounted on a dissecting microscope. Vascular diameter was measured using a digital image analyzer. Vascular diameter was recorded before and after topical application of pre-constricting agent, U46619 (10^−7 M). After stabilization of preparation, the ligand (IL-1β, 75 ng/ml) was added until stable vasodilation was detected. Peptides were subsequently added at different concentrations from 10^−10 to 10^−5 M. Reversal of vasodilatation was visualized and measured as previously described (Hou, et al. 2000; Hou et al. 2001; Hou et al. 2003); triplicate measurements were conducted on 2 animals.

[3] = target: T2, IL-1R/IL-1RacP receptor (Homo sapiens, UniProt P14778); experiment: IL-1-induced PGE2 synthesis in human chondrocytes; format: cell-based; design: endogenous in cells; settings: alanine scan peptides 10^−6M
T2 sequence (P14778 18-569): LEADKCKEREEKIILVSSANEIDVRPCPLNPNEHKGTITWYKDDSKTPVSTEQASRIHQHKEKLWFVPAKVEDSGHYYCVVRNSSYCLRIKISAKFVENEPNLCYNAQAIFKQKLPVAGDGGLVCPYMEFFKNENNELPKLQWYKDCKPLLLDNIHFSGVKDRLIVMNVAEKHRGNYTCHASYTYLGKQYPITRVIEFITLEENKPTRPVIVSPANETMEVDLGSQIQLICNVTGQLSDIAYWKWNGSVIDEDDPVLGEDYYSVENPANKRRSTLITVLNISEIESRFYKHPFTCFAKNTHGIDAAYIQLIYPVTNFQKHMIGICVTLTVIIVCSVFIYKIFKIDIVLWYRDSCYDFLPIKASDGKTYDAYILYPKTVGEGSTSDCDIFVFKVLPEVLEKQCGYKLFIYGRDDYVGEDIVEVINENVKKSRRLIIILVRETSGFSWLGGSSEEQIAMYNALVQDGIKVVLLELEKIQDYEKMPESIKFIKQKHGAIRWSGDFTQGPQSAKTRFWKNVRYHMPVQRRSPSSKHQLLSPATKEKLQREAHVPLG
Protocol: as §1

[4] = target: T3, IL-1R (Homo sapiens, UniProt P14778); experiment: Characterization of peptidomimetics (FIGS. 26, 29, 30; assay not stated); settings: FIG. 26
T3 sequence (P14778 18-569): T2 sequence (P14778 18-569)

[5] = target: T4, IL-1R/IL-1RacP receptor (Rattus norvegicus, UniProt Q02955); experiment: IL-1β-induced systemic hypotension in rats; format: in vivo; settings: jugular injection
T4 construct: from tissue; host or cells: whole animal, Sprague-Dawley rat
T4 sequence (Q02955 20-576): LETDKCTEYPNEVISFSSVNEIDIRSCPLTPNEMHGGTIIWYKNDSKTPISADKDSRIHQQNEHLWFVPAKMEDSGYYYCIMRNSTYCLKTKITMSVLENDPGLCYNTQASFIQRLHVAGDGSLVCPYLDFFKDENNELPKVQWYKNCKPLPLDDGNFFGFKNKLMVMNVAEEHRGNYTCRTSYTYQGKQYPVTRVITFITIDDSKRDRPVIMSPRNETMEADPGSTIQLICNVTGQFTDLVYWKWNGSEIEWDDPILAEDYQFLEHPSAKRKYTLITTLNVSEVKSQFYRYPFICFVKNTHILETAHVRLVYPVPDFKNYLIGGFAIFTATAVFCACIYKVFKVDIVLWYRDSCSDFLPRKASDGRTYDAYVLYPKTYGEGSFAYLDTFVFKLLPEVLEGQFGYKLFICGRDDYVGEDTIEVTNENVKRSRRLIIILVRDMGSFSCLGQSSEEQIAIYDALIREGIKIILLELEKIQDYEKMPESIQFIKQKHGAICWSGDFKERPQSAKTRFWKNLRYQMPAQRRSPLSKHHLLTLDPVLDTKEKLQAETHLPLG
Protocol: The API-101 derivatives, API-101.10 (SEQ ID NO: 10) (and others) were tested to assess whether they could reverse the physiological actions of the natural ligand in vivo by injecting the derivative through the jugular or directly into the stomach (to verify the stability of the peptide through the digestive tract). Sprague-Dawley rats (300 g) were anesthetized with isoflurane (2.5-4%). The natural ligand (IL-1β) or vehicle (saline) was injected through the jugular vein (5 μg/kg). Blood was taken from the carotid artery for subsequent PGE2 measurements before and 10 min after each injection. Peptides were administered (dosage based on IC50 values and a volume of distribution equivalent to the extracellular space) either in the jugular vein or directly in the stomach (5 times dose used intravenously, (iv)). Arterial blood pressure and heart rate were continuously monitored (Gould) while temperature and blood gases (Radiometer) were measured for routine analysis as previously described (Li et al. 1997; Hardy et al. 1999; Najarian et al. 2000). Experiments were repeated 3 times.

[6] = system: IL-1R/IL-1RacP receptor; experiment: IL-1-induced PGE2 synthesis in piglet brain microvascular endothelial cells; format: cell-based, porcine; settings: for potency and efficacy, IL-1-induced PGE2 synthesis: truncated derivatives, FIG. 18 (WI-38 and endothelial cells)
Protocol: as §1

[7] = TNBS-induced inflammatory bowel disease rat model, Example 6 (48 h; MPO, macroscopic, histologic); format: in vivo; design: macroscopic evaluation (median score): scale not given here
Protocol: Colon inflammation was induced by intra-rectal/colon administration of the hapten trinitrobenzene sulphonic acid (TNBS) on male Sprague-Dawley rats (175-200 g) (Bouma, Nature Rev, 2003; Morris, Gastroenterology, 1989). Animals were anesthetized with isoflurane and TNBS dissolved in 50% ethanol (vol/vol). 120 mg/ml (TNBS) was administered into the colon (total volume of 0.25 ml per rat) using a polyethylene tube (PE50). The cannula was inserted at 8 cm from the anus and kept in place for at least 15 min after TNBS administration in order to prevent expulsion of the solution. […] A third group (control) was not injected with TNBS. Six days after administration of TNBS, rats were killed by CO2 inhalation. Day 6 was chosen as an endpoint because by day 7 spontaneous tissue regeneration begins and this can mask the therapeutic effect of the tested peptide or peptide derivative. Colon was removed and examined macroscopically (adhesions, ulcerations, discoloration and bleeding) and histologically (neutrophil infiltration, epithelial injury, crypt distortion and ulcerations) (Anthony et al. 1995; Padol et al. 2000; Dieleman, L A, et al. 1997; Torres M I et al. 1999). Two animals per group were studied.
Colon inflammation was induced by intra-rectal/colon administration of the hapten trinitrobenzene sulphonic acid (TNBS) as described in Example 4. Two hours prior to TNBS administration, peptides, peptidomimetics or 0.9% saline were administered intravenously (iv) via the caudal vein (various concentrations of mg/kg/d) (total volume of 0.3 ml). […] A third group (control) was not injected with TNBS. […] Also, these IL-1R antagonists were given twice a day (BID); Remicade® (anti-TNFα) (10 mg/kg) and dexamethasone (0.75 mg/kg) were administered intraperitoneally but only once a day (qd). The intrarectal administration (ir) of 101.10, 101.113 (1 and 2.5 mg/kg), and 5-ASA (50 mg/kg) was done one hour after TNBS administration, and twice a day, except for 5-ASA which is once a day. Finally, 101.10 (1-5 mg/kg) was also administered orally by gavage (po), twice a day. Forty-eight hours after administration of TNBS, rats were killed by CO2 inhalation. Colon was removed and assessed macroscopically (adhesions, ulcerations, discoloration and bleeding) and histologically (neutrophil infiltration, epithelial injury, crypt distortion and ulcerations). One to seven animals per group were studied, according to treatments. Myeloperoxidase (MPO) activity was measured on tissue lysates.

[8] = Continuous infusion (ip), 0.5 mg/kg/d
[9] = Intermittent injection ip, 0.2-BID mg/kg/d

Molecule: APRYTVALA [API-101.6]
- inhibition of IL-1-induced PGE2 synthesis, compared with parent API-101 [1]: lost almost all activity
- reversal of IL-1β-induced vasodilation [2]: reversed the vasodilation
- inhibition of IL-1-induced PGE2 synthesis, compared with parent API-101 [3]: lost almost all activity

Molecule: AARYTVELA [API-101.1]
- inhibition of IL-1-induced PGE2 synthesis, compared with parent API-101 [1]: slightly improved efficacy
- reversal of IL-1β-induced vasodilation [2]: reversed the vasodilation
- vasodilation abolished [2]: 70%
- inhibition of IL-1-induced PGE2 synthesis, compared with parent API-101 [3]: slightly improved efficacy

Molecule: CC(C)C[C@@H](NC(=O)[C@@H](CCC(=O)O)NC(=O)[C@H]1CC[C@H]2CC[C@@H](NC(=O)[C@@H](Cc3ccc(O)cc3)NC(=O)[C@H](N)CCCNC(=N)N)C(=O)N21)C(=O)N[C@H](C)C(N)=O [API-101.110, RY(I^2aa)ELA]
- efficacy compared with API-101.107 [1]: twice the efficacy
- potency, fold higher than API-101.107 [1]: 10 fold
- IC50 [4]: 10 pM

Molecule: PRYTVELA [API-101.9]
- prevention of IL-1β-induced hypotension, in words [5]: less effective

Molecule: TVELA [API-101.12]
- potency and efficacy, IL-1-induced PGE2 synthesis [6]: decrease in potency and efficacy

Molecule: YTVELA [API-101.11]
- potency and efficacy, IL-1-induced PGE2 synthesis [6]: decrease in potency and efficacy

Molecule: CC(C)C[C@@H](NC(=O)[C@@H](CCC(=O)O)NC(=O)[C@H]1CCCN1C(=O)[C@H](NC(=O)[C@@H](Cc1ccc(O)cc1)NC(=O)[C@H](N)CCCNC(=N)N)[C@H](C)O)C(=O)N[C@H](C)C(N)=O [API-101.107, RYTPELA] (HELM PEPTIDE1{[dR].[dY].[dT].[dP].[dE].[dL].[dA].[am]}$$$$V2.0; C-terminus assumed)
- IC50 ([6]; FIG. 15, cell type not stated): 1.2 pM
- MPO (% of TNBS + Saline) [7, 8]: 37 % of TNBS + Saline
- histologic evaluation (median score) [7, 8]: 1.5
- MPO (% of TNBS + Saline) [7, 9]: 112 % of TNBS + Saline
- histologic evaluation (median score) [7, 9]: 2.5
- macroscopic evaluation (median score) [7, 9]: 1.37^†
- reduction in MPO activity, macroscopic and histologic score, compared with Kineret ([7]; intraperitoneal osmotic pumps (continuous infusion)): superior or equivalent in efficacy to Kineret
